Assay results reported in ChEMBL document CHEMBL1201862, “PubChem BioAssay data set” (2004).
Calls of active or inactive are those of the source.

Columns and labels:
[1] = target: T1, Tyrosine-protein phosphatase non-receptor type 7 (Homo sapiens, UniProt P35236); experiment: inhibitors of human HePTP phosphatase, […], biochemical, absorbance, leukemia target (AID 521); assay type: functional
T1 sequence (P35236 whole entry): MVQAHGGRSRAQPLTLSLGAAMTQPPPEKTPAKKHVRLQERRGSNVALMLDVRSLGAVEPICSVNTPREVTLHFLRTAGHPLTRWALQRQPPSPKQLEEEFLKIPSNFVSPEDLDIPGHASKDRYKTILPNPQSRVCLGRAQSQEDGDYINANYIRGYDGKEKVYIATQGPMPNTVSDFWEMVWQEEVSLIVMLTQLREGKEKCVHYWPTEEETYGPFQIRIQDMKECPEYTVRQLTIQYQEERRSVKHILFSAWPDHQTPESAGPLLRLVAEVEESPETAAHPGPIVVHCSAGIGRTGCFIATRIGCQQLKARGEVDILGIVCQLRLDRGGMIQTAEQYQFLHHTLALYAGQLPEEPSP

[2] = growth suppression of beta-catenin-knockout colon cells, dose response, cell-based, HCT116, human colon tumor (AID 1045); assay type: functional;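 also: HCT116 colon tumor cells with beta catenin knocked out; cells exposed to compound for 60 hours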
Protein skinhead-1 = target: T2, Protein skinhead-1 (Caenorhabditis elegans, UniProt P34707); assay type: functional
T2 sequence (P34707 whole entry): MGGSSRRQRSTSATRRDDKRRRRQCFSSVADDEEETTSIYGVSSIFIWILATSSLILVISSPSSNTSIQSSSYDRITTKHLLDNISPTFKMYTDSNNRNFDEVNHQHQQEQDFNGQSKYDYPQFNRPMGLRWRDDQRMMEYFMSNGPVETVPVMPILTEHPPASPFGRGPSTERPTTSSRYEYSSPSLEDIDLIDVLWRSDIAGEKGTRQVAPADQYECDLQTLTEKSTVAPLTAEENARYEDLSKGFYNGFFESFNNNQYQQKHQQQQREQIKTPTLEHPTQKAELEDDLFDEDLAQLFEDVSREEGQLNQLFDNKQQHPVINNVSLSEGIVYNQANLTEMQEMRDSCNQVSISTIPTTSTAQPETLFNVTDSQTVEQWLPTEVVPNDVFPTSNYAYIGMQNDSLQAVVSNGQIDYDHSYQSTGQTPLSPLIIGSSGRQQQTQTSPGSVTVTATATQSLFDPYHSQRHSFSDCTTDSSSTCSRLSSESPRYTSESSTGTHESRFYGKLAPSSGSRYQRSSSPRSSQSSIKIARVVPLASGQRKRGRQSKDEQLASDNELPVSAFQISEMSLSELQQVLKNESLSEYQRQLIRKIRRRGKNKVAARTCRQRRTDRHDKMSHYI

[3] = growth suppression of PTEN-null colon cells, dose response, cell-based, HCT116 PTEN knockout (AID 1047); assay type: functional;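 also: HCT116 colon tumor cells with PTEN knocked out; cells exposed to compound for 60 hours before readout; potency for loss of cell viability measured by luminescence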
[4] = inhibitors of PGC1a acetylation in cells, dose response, cell-based, cherry-picked samples (AID 720514); assay type: functional;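 also: potency may reflect raised or lowered acetylation signal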
INS1 = experiment: beta cell apoptosis inhibitors, cytokine rescue, dose response, luminescence, retest (AID 449756); assay type: functional, cell-based; conditions: Rattus norvegicus;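 also: cell death triggered by IL-1 beta plus TNF-alpha plus IFN-gamma mixture; protective hits raise ATP signal compared with cytokine alone wells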
HEK293 [5] = experiment: NOD2 signaling inhibitors in MDP-stimulated cells, cell-based, uHTS, luminescence (AID 2001); assay type: functional; conditions: Homo sapiens
[6] = target: COUP transcription factor 2 (Homo sapiens, UniProt P24468); experiment: Luminescence-based cell-based high throughput dose response assay to identify inhibitors of COUP-TFII (NR2F2).; assay type: functional;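 also: HEK293 cells transiently cotransfected with COUP-TFII expression vector and reporter; luciferase reporter luminescence driven by COUP-TFII from the pX2-168 reporter plasmid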
Chain of COUP transcription factor 2 (P24468 whole entry): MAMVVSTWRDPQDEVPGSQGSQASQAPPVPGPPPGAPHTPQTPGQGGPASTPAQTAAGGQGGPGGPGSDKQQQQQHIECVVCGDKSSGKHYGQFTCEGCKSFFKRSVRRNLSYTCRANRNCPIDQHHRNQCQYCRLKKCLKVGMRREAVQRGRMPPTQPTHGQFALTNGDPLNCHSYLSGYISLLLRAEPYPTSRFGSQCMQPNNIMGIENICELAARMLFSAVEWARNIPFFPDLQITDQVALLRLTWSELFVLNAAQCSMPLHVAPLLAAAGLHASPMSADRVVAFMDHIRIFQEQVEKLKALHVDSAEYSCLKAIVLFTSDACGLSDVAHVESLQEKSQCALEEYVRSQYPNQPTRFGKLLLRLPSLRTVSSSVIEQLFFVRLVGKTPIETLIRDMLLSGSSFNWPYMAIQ

HEK293 [7] = experiment: cells; assay type: functional, cell-based; conditions: Homo sapiens
[8] = target: Nucleotide-binding oligomerization domain-containing protein 2 (Homo sapiens, UniProt Q9HC29); experiment: NOD2 signaling inhibitors, cell-based, luminescence, uHTS, HEK293 (AID 1566); assay type: functional
Chain of Nucleotide-binding oligomerization domain-containing protein 2 (Q9HC29 whole entry, the tested form may be a part): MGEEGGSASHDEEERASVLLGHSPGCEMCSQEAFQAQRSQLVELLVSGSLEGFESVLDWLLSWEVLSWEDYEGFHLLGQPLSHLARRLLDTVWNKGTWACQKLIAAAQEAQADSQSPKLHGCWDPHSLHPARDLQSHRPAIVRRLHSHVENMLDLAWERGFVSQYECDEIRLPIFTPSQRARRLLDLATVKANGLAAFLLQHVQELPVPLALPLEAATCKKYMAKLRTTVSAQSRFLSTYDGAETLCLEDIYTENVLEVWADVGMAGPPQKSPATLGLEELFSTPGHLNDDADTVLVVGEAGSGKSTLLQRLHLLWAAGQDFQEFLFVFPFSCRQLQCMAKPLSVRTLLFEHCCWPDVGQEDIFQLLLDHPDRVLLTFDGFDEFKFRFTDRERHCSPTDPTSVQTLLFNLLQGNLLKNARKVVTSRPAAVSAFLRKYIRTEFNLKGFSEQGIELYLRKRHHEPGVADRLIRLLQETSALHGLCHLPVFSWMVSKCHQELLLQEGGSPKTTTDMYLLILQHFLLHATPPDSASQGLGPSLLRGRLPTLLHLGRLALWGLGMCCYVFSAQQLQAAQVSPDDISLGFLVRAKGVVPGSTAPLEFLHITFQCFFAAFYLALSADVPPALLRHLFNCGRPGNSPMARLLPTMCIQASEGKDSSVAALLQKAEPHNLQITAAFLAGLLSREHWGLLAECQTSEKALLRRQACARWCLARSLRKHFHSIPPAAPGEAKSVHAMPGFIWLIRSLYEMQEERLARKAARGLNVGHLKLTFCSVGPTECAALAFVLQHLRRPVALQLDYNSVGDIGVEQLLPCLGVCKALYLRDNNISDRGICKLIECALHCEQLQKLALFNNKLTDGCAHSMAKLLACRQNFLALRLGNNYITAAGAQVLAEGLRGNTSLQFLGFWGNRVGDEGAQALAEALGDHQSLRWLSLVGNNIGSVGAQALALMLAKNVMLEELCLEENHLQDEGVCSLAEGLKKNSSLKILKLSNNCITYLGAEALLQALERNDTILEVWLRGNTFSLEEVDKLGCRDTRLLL

[9] = target: Heat shock protein HSP 90-alpha (Homo sapiens, UniProt P07900); experiment: Luminescence-based dose response biochemical high throughput screening assay for inhibitors of the Heat Shock Protein 90 (HSP90). [Related pubchem assays: 1831 (Summary AID.), 1846 (Confirmation screen.), 1789 (Primary screen.)]
HEK293 [10] = experiment: cells; assay type: functional, cell-based; conditions: Homo sapiens; remark: listed apart in the source
HEK293 [11] = experiment: NOD1 signaling inhibitors, primary screen, cell-based, luminescence, uHTS (AID 1578); assay type: functional; conditions: Homo sapiens
Galanin receptor type 2 = Galanin receptor type 2 (Homo sapiens, UniProt O43603); experiment: Dose Response cell-based high-throughput screening assay to identify antagonists of galanin receptor 2 (GALR2). [Related pubchem assays: 828, 866 ]; assay type: functional
Chain of Galanin receptor type 2 (O43603 whole entry): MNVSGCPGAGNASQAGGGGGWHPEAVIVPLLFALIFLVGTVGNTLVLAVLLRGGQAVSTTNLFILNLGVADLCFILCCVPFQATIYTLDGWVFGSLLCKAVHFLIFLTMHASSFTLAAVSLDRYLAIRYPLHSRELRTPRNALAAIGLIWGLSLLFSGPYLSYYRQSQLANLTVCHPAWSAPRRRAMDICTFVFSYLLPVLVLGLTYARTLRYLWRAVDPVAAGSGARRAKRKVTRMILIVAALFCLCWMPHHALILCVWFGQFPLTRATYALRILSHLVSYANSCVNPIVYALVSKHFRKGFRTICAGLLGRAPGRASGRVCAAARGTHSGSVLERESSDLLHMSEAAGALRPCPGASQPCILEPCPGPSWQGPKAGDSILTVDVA

HEK293 [12] = experiment: cells; assay type: functional, cell-based; conditions: Homo sapiens; remark: listed apart in the source
[13] = PAX2 cell-based inhibition, dose response, selectivity assay for PAX8 inhibitor project, plate reader, dry powder samples (AID 743048); assay type: functional;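 also: HEK293 cells carrying a WT1 promoter luciferase reporter driven by expressed Pax2; potency is for inhibition of Pax2 driven reporter signal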
Paired box protein Pax-8 = Paired box protein Pax-8 (Homo sapiens, UniProt Q06710); experiment: inhibitors of PAX8-driven TPO luciferase reporter, dose response, RMG-I cells, cherry-pick (AID 687027); assay type: functional, cell-based;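 also: luciferase reporter driven by Pax8 target thyroperoxidase promoter measured by SteadyGlo luminescence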
Chain of Paired box protein Pax-8 (Q06710 whole entry): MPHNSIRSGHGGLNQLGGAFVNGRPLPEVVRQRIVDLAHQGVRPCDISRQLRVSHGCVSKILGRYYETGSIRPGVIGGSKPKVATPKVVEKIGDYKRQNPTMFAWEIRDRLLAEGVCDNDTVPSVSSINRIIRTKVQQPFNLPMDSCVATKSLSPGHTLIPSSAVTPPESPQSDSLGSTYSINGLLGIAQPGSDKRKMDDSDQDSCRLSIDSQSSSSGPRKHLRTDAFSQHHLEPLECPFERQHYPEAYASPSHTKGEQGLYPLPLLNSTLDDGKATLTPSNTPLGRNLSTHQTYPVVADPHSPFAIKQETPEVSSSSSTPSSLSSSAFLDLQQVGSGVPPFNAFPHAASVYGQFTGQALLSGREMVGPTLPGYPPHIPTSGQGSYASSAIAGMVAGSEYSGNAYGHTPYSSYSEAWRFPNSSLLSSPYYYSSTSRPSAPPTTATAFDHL

[14] = cytotoxicity dependent on PAX8, dose response, cell-based, plate reader, dry powder (AID 743049); assay type: functional
[15] = PAX5 activity inhibitors, dose response, selectivity assay for PAX8 inhibitor project, cell-based, plate reader, dry powder samples (AID 743047); assay type: functional;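 also: HEK293 cells carrying a Pax5 driven CD19 promoter luciferase reporter; potency of inhibitors that lower reporter luminescence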
[16] = cytotoxicity in COV362 ovarian cancer cells, dose response, cytotoxicity control for PAX8 inhibitor project, cell-based, plate reader, dry powder, SA12 (AID 743144); assay type: functional
[17] = cytotoxicity in OVCAR4 cells, dose response, cytotoxicity control for PAX8 inhibitor project, cell-based, plate reader, dry powder, SA11 (AID 743150); assay type: functional; conditions: OVCAR-4
[18] = cytotoxicity in OV-90 ovarian cancer cells, dose response, PAX8 inhibitor project, cell-based, plate reader, dry powder, SA8 (AID 743149); assay type: functional
[19] = IOSE-T80 ovarian epithelial cell cytotoxicity, dose response, cytotoxicity control for PAX8 inhibitor project, plate reader, dry powder samples (AID 743045); assay type: functional, cell-based
[20] = cytotoxicity in COV434 cells, dose response, cytotoxicity control for PAX8 inhibitor project, cell-based, plate reader, dry powder, SA7 (AID 743145); assay type: functional
[21] = target: T3, Methionyl-tRNA synthetase, putative (Trypanosoma brucei brucei, UniProt Q38C91); assay type: functional, Trypanosoma brucei brucei strain 927/4 GUTat10.1
T3 sequence (Q38C91 whole entry): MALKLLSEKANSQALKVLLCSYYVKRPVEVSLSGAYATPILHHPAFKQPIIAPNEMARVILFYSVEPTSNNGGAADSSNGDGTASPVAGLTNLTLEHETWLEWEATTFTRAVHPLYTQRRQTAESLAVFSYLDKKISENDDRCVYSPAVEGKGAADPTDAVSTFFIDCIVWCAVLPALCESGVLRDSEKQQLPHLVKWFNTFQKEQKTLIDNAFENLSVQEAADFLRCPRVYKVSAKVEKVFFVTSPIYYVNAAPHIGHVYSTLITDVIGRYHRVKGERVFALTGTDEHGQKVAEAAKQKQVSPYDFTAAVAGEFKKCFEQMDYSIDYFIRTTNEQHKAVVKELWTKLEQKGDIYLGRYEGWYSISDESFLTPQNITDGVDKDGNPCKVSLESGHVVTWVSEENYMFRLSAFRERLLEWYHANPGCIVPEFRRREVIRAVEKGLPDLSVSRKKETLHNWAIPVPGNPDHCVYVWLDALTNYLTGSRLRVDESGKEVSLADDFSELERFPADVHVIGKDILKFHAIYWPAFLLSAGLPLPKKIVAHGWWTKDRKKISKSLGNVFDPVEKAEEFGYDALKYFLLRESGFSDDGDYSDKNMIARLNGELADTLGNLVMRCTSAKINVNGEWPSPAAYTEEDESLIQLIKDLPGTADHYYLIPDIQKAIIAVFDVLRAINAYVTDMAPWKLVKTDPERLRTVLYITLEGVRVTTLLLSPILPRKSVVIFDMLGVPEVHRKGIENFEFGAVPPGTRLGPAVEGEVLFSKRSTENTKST

[22] = target: T3, Methionyl-tRNA synthetase, putative; assay type: functional, Trypanosoma brucei brucei strain 927/4 GUTat10.1; remark: listed apart in the source
[23] = Late stage counterscreen for inhibitors of Trypanosoma brucei methionyl tRNA synthetase (MetRS): Luminescence-based cell-based high throughput dose response assay to identify compounds that are cytotoxic to Jurkat human T lymphocyte cells.; assay type: functional
[24] = Counterscreen for inhibitors of Trypanosoma brucei methionyl tRNA synthetase (MetRS): Luminescence-based cell-based high throughput dose response assay to identify compounds that are cytotoxic to Jurkat human T lymphocyte cells.; assay type: functional
[25] = target: Diphosphomevalonate decarboxylase (Streptococcus pneumoniae serotype 2 (strain D39 / NCTC 7466), UniProt Q9FD53); experiment: S. pneumoniae DPM-DC inhibition retest, confirmation, biochemical, cuvette format, coupled NADH fluorescence (AID 1028); assay type: functional
Chain of Diphosphomevalonate decarboxylase (Q9FD53 whole entry): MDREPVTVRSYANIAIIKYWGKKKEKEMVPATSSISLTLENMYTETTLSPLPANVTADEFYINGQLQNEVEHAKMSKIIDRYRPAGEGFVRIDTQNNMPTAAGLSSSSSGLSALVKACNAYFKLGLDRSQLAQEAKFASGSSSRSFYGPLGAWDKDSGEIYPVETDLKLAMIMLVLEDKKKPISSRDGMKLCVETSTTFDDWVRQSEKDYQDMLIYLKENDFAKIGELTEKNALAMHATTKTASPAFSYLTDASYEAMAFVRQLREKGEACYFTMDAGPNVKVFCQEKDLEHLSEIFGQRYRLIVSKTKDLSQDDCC

[26] = target: NAD-dependent protein deacylase sirtuin-5, mitochondrial (Homo sapiens, UniProt Q9NXA8); experiment: SIRT5 desuccinylase inhibitors, dose response, biochemical, fluorescence imaging, cherry-pick, set 5 (AID 720591);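 also: desuccinylation of succinyl peptide AMC substrate read as fluorescence after trypsin release; potency of inhibitors that lower fluorescence and may act on trypsin instead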
Chain of NAD-dependent protein deacylase sirtuin-5, mitochondrial (Q9NXA8 whole entry): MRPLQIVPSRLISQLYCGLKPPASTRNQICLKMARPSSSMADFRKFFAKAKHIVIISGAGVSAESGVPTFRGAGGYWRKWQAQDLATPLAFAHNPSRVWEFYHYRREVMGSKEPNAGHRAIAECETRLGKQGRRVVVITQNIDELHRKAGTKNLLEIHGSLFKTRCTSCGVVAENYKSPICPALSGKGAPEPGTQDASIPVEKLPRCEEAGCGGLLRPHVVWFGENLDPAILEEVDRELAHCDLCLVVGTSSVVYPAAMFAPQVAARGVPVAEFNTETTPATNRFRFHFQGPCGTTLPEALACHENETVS

[27] = target: T4, Endoribonuclease toxin MazF (Escherichia coli K-12, UniProt P0AE70); experiment: fluorescent RNA oligo signal without MazF, dose response, counter-screen for MazEF activator project, biochemical, fluorescence, single-stranded RNase substrate (AID 588502); assay type: functional
T4 sequence (P0AE70 whole entry): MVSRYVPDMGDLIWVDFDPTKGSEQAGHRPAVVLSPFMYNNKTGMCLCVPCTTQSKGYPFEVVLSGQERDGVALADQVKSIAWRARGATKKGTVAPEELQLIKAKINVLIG

Protein Tat = Protein Tat (Human immunodeficiency virus type 1 group M subtype B (isolate HXB2)(HIV-1), UniProt P04608); assay type: functional;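 also: tat binding to TAR RNA read out by fluorescence polarization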
Chain of Protein Tat (P04608 whole entry): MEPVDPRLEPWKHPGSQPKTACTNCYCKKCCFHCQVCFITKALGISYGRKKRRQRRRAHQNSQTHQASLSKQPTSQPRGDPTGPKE

[28] = target: T4, Endoribonuclease toxin MazF; experiment: MazF toxin RNase activators, dose response, biochemical, fluorescence, single-stranded RNA substrate, uHTS hits (AID 588481); assay type: functional

CN(Cc1ccccc1)c1nc2c(c(=O)[nH]c(=O)n2C)n1Cc1ccccc1
IC50 [1]: > 100 µM (not active)

CCOc1cc(CNC2CCCC2)cc(Cl)c1OCc1ccc(F)cc1
EC50 [2]: 12.5 µM (active) | IC50 (Protein skinhead-1): < 3.13 µM (active) | EC50 [3]: 16.1 µM (active) | AC50 [4]: 9.73 µM (active)

CC(=O)Nc1ccccc1OCC(=O)c1cc(C)n(Cc2cccs2)c1C
AC50 (INS1): 0.775 µM (active) | IC50 (HEK293 [5]): 2.05 µM (inactive) | IC50 [6]: 0.807 µM (active) | IC50 (HEK293 [7]): > 20 µM (inactive) | EC50 [8]: < 0.31 µM (inactive) | IC50 [9]: 0.106 µM (active) | IC50 (HEK293 [10]): < 0.312 µM (active) | EC50 (HEK293 [11]): 0.566 µM (active) | IC50 (Galanin receptor type 2): > 42 µM (not active) | IC50 (HEK293 [12]): 13.4 µM (active)

COc1ccc(CCN2C(=O)CSC2=S)cc1OC
AC50 [13]: 68.3 µM (active) | AC50 (Paired box protein Pax-8): 7.01 µM (active) | AC50 [14]: 16 µM (active) | AC50 [15]: > 100 µM (inactive) | AC50 [16]: 16.6 µM (active) | AC50 [17]: 51.2 µM (active) | AC50 [18]: 8.61 µM (active) | AC50 [19]: 16.8 µM (active) | AC50 [20]: 6.49 µM (active)

Clc1ccc(OCCSCc2nc3ccccc3[nH]2)cc1
IC50 [21]: 8.17 µM (active) | IC50 [22]: 5.85 µM (active) | IC50 [23]: > 83.3 µM (inactive) | IC50 [24]: 83.3 µM (inactive)

CN(C)C(=O)c1ccc(-n2sc3ccccc3c2=O)cc1
IC50 [25]: 21.9 µM (active)

O=C(O)CCNC(=O)c1ccc(NC(=O)C(c2ccccc2)c2ccccc2)cc1
AC50 [26]: 10.6 µM (active)

CCN(CC)c1ccc(/C=N/c2ccc(N(C)C)cc2)c(O)c1
EC50 [27]: > 99 µM (inactive) | IC50 (Protein Tat): > 100 µM (inconclusive) | EC50 [28]: > 99 µM (inactive)
